# In ChEMBL document CHEMBL1135291, “Novel matrix metallo-proteinase (MMP-2) phosphonoboronate inhibitors” (Bioorg Med Chem Lett, 2002):
# Target: 72 kDa type IV collagenase (Homo sapiens) (UniProt P08253)
# Assay: Inhibition of Matrix metalloprotease-2 at 50 uM
# 72 kDa type IV collagenase (Homo sapiens), sequence (P08253 110-660 limits assumed): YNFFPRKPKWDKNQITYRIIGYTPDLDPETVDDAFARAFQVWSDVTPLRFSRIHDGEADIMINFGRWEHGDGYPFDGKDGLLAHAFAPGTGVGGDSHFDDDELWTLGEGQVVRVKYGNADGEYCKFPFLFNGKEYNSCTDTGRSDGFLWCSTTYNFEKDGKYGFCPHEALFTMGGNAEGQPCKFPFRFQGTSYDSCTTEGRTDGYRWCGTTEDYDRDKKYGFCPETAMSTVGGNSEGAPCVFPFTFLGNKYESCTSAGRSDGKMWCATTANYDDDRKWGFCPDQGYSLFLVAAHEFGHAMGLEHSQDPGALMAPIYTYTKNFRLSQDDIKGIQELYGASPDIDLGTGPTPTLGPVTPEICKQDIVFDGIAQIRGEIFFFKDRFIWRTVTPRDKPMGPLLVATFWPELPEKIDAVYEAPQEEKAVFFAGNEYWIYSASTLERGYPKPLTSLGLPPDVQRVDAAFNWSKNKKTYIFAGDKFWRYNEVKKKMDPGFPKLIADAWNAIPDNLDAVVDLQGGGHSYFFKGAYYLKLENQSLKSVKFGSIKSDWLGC
row,inhibition [%],Structure (SMILES)
1,50,CCCCCC(B1OC(C)(C)C(C)(C)O1)P(=O)(O)O (configuration not stated)
2,0,O=P(O)(O)CB(O)O
3,55,CC1(C)OB(C(CCCCl)P(=O)(O)O)OC1(C)C (configuration not stated)
4,40,CC1(C)OB(C(Cc2ccccc2)P(=O)(O)O)OC1(C)C (configuration not stated)
5,75,CC1(C)OB(/C=C/CP(=O)(O)O)OC1(C)C
6,50,CC1(C)OB(CP(=O)(O)O)OC1(C)C

row,Structure (SMILES),inhibition [%]
1,COP(=O)(CC1OC(C)(C)C(C)(C)O1)OC,0
